Values quoted from earlier work as cited in patent US11866384B2, “Compositions and their use in agricultural applications” (SYNSUS PRIVATE LABEL PARTNERS, LLC, priority 2018, dated 2024).

**Q.** For dicyandiamide, which solubility in water is on record?
**A.** about 41 grams per liter
